Reference: PubChem BioAssay (NCI)
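1) Cells in 96-well plates. 2) Compound, 48 h, 5 concentrations. 3) Linear interpolation between surrounding doses. 4) Unreached endpoint = highest concentration. TGI is the concentration that stops growth completely.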

Legend:
Assay in all cases: growth of human tumour cells (NCI), 48 h
[1] = system: MDA-N
[2] = system: U251 CNS
[3] = system: OVCAR-5 ovarian
[4] = system: SF-295 CNS
[5] = system: NCI/ADR-RES ovarian
[6] = system: SK-MEL-28 melanoma
[7] = system: NCI-H23 lung
[8] = system: HOP-62 NSCLC
[9] = system: 786-0 renal
[10] = system: DU-145 prostate
[11] = system: MDA-MB-435
[12] = system: SK-OV-3 ovarian
[13] = system: KM12 colon
[14] = system: CCRF-CEM leukemia
[15] = system: MCF7 breast
[16] = system: CAKI-1 renal
[17] = system: PC-3 prostate
[18] = system: SW-620 colon
[19] = system: OVCAR-8 ovarian
[20] = system: COLO 205 colon
[21] = system: MDA-MB-231 breast
[22] = system: UO-31 renal
[23] = system: RXF 393 renal
[24] = system: HCT-116 colon
[25] = system: K-562 leukemia
[26] = system: RPMI-8226 leukemia
[27] = system: SF-539 CNS
[28] = system: A549 NSCLC
[29] = system: M14 melanoma
[30] = system: SK-MEL-5 melanoma
[31] = system: ACHN renal
[32] = system: NCI-H460 lung
[33] = system: MALME-3M melanoma
[34] = system: EKVX NSCLC
[35] = system: HOP-92 NSCLC
[36] = system: HCT-15 colon
[37] = system: OVCAR-4 ovarian
[38] = system: TK-10 renal
[39] = system: SF-268 CNS
[40] = system: SK-MEL-2 melanoma
[41] = system: LOX IMVI melanoma
[42] = system: NCI-H522 lung
[43] = system: SNB-19 CNS
[44] = system: HCC-2998 colon
[45] = system: HL-60(TB) leukemia
[46] = system: MOLT-4 leukemia
[47] = system: UACC-257 melanoma
[48] = system: IGROV1 ovarian
[49] = system: SNB-75 CNS
[50] = system: OVCAR-3 ovarian
[51] = system: BT-549 breast
[52] = system: HT29 colon
[53] = system: T-47D breast
[54] = system: SR leukemia
[55] = system: SN12C renal
[56] = system: NCI-H226 lung
[57] = system: HS 578T breast
[58] = system: UACC-62 melanoma

## Cc1cc(C)nc(NS(=O)(=O)c2ccc(NNc3c4ccccc4nc4c(C(=O)Nc5ccc(S(=O)(=O)N=C(N)N)cc5)cccc34)cc2)n1
[1]
  TGI: > 100 µM
[2]
  TGI: 96.8 µM
[3]
  TGI: > 100 µM
[4]
  TGI: > 100 µM
[5]
  TGI: > 100 µM
[6]
  TGI: 85 µM
[7]
  TGI: > 100 µM
[8]
  TGI: > 100 µM
[9]
  TGI: > 100 µM
[10]
  TGI: > 100 µM
[11]
  TGI: > 100 µM
[12]
  TGI: > 100 µM
[13]
  TGI: > 100 µM
[14]
  TGI: 98 µM
[15]
  TGI: > 100 µM
[16]
  TGI: > 100 µM
[17]
  TGI: > 100 µM
[18]
  TGI: > 100 µM
[19]
  TGI: > 100 µM
[20]
  TGI: > 100 µM
[21]
  TGI: > 100 µM
[22]
  TGI: > 100 µM
[23]
  TGI: > 100 µM
[24]
  TGI: > 100 µM
[25]
  TGI: > 100 µM
[26]
  TGI: > 100 µM
[27]
  TGI: > 100 µM
[28]
  TGI: > 100 µM
[29]
  TGI: > 100 µM
[30]
  TGI: > 100 µM
[31]
  TGI: > 100 µM
[32]
  TGI: > 100 µM
[33]
  TGI: > 100 µM
[34]
  TGI: > 100 µM
[35]
  TGI: > 100 µM
[36]
  TGI: > 100 µM
[37]
  TGI: > 100 µM
[38]
  TGI: > 100 µM
[39]
  TGI: > 100 µM
[40]
  TGI: 61.5 µM
[41]
  TGI: > 100 µM
[42]
  TGI: > 100 µM
[43]
  TGI: > 100 µM
[44]
  TGI: > 100 µM
[45]
  TGI: > 100 µM
[46]
  TGI: > 100 µM
[47]
  TGI: > 100 µM
[48]
  TGI: > 100 µM
[49]
  TGI: > 100 µM
[50]
  TGI: 96.8 µM
[51]
  TGI: > 100 µM
[52]
  TGI: 77.7 µM
[53]
  TGI: > 100 µM
[54]
  TGI: 76.1 µM
[55]
  TGI: > 100 µM
[56]
  TGI: > 100 µM

## CC(C1CCCC1=O)C1CCCC1=O (stereo not given)
[1]
  TGI: > 100 µM
[2]
  TGI: > 100 µM
[3]
  TGI: > 100 µM
[57]
  TGI: > 100 µM
[4]
  TGI: > 100 µM
[5]
  TGI: > 100 µM
[6]
  TGI: > 100 µM
[7]
  TGI: > 100 µM
[8]
  TGI: > 100 µM
[9]
  TGI: > 100 µM
[10]
  TGI: > 100 µM
[12]
  TGI: > 100 µM
[13]
  TGI: > 100 µM
[14]
  TGI: > 100 µM
[15]
  TGI: > 100 µM
[16]
  TGI: > 100 µM
[17]
  TGI: > 100 µM
[18]
  TGI: > 100 µM
[19]
  TGI: > 100 µM
[20]
  TGI: > 100 µM
[21]
  TGI: > 100 µM
[22]
  TGI: > 100 µM
[23]
  TGI: > 100 µM
[24]
  TGI: > 100 µM
[25]
  TGI: > 100 µM
[27]
  TGI: > 100 µM
[28]
  TGI: > 100 µM
[29]
  TGI: > 100 µM
[58]
  TGI: > 100 µM
[30]
  TGI: > 100 µM
[31]
  TGI: > 100 µM
[32]
  TGI: > 100 µM
[33]
  TGI: > 100 µM
[34]
  TGI: > 100 µM
[36]
  TGI: > 100 µM
[37]
  TGI: > 100 µM
[38]
  TGI: > 100 µM
[39]
  TGI: > 100 µM
[40]
  TGI: > 100 µM
[41]
  TGI: > 100 µM
[42]
  TGI: > 100 µM
[43]
  TGI: > 100 µM
[44]
  TGI: > 100 µM
[45]
  TGI: > 100 µM
[46]
  TGI: > 100 µM
[47]
  TGI: > 100 µM
[48]
  TGI: > 100 µM
[49]
  TGI: > 100 µM
[51]
  TGI: > 100 µM
[52]
  TGI: > 100 µM
[53]
  TGI: > 100 µM
[54]
  TGI: > 100 µM
[55]
  TGI: > 100 µM
[56]
  TGI: > 100 µM
